Laboratory results: patent US8916702B2 (priority 2012, dated 2014)
Read-outs that look alike come from different tables or passages of the source.

Test system: HCV pseudoparticles (genotype 1a HCV E1 and E2 envelope, H77C isolate)
Test: microbe, parasite or virus in culture
Format: cell-based
Settings: Hepatitis C virus
[1] = Huh-7, 48 h, read-out: Activity (EC50 class), HCV pseudoparticles, Huh7 cells, luciferase 2 days after infection, average of duplicates
[2] = Huh-7, read-out: Activity (EC50 class), HCV pseudoparticles (genotype 1a, H77C) in Huh7 cells, EC50 expressed as class A/B
[3] = Huh-7, 48 h, HCV pseudoparticles (genotype 1a, H77C) in Huh7 cells, average of duplicate, luciferase 2 days after infection
[4] = Huh-7, 48 h, read-out: Activity (EC50 class), HCV pseudoparticle infection of Huh7 cells, luciferase 2 days after infection, EC50 expressed as class A/B
[5] = Huh-7, 48 h, HCV pseudoparticles, Huh7 cells, luciferase 2 days after infection, average of duplicates

Row | SMILES | EC50 [1] [nM] | EC50 [2] [nM] | further results
1 | COC(=O)[C@H](CNC(=O)C(=O)Nc1cccc(-c2ccc(Cl)cc2)c1)NC(=O)c1ccc(Nc2nc(NC3(c4ccc(Cl)cc4)CC3)nc(OCC(F)(F)F)n2)cc1 [Compound 3720] | 0.01 to 10 | – | –
2 | CC(C)(CNC(=O)C(=O)Nc1ccc2sccc2c1)CNC(=O)c1ccc(Nc2nc(NC3(c4ccc(Cl)cc4)CC3)nc(OCC(F)(F)F)n2)cc1 [Compound 3666] | 0.01 to 10 | – | –
3 | Cc1cc(NC(=O)C(=O)N(C)CCCN(C)C(=O)c2ccc(Nc3nc(NC4(c5ccc(Cl)cc5)CC4)nc(OCC(F)(F)F)n3)cc2)no1 [Compound 3423] | – | 0.01 to 10 | –
4 | Cc1cc(NC(=O)C(=O)NCCNC(=O)c2ccc(Nc3nc(NC4(c5ccc(Cl)cc5)CC4)nc(OCC(F)(F)F)n3)cc2)no1 [Compound 3372] | – | 0.01 to 10 | –
5 | COC(=O)[C@H](CNC(=O)C(=O)Nc1cccc(-c2csc(C)n2)c1)NC(=O)c1ccc(Nc2nc(NC3(c4ccc(Cl)cc4)CC3)nc(OCC(F)(F)F)n2)cc1 [Compound 3718] | 0.01 to 10 | – | –
6 | O=C(NCC[C@H](NC(=O)c1ccc(Nc2nc(NC3(c4ccc(Cl)cc4)CC3)nc(OCC(F)(F)F)n2)cc1)C(=O)O)C(=O)Nc1ccc(-c2ncco2)cc1 [Compound 3547] | – | 0.01 to 10 | EC50 [3]: 2.09 nM
7 | O=C(NCC[C@H](NC(=O)c1ccc(Nc2nc(NC3(c4ccc(Cl)cc4)CC3)nc(OCC(F)(F)F)n2)cc1)C(=O)O)C(=O)NCC1(c2ccccc2)CC1 [Compound 1421] | – | – | EC50 [4]: 0.01 to 10 nM
8 | O=C(NCC(O)CNC(=O)c1ccc(Nc2nc(NC3(c4ccc(Cl)cc4)CC3)nc(OCC(F)(F)F)n2)cc1)C(=O)N1CCCCC1 (stereo not shown) [Compound 3465] | – | 0.01 to 10 | –
9 | COC(=O)/C(CCNC(=O)C(=O)Nc1ccc(-n2nc(C)cc2C)cc1)=N\C(=O)c1ccc(Nc2nc(NC3(c4ccc(Cl)cc4)CC3)nc(OCC(F)(F)F)n2)cc1 [Compound 3137] | – | 0.01 to 10 | –
10 | COC(=O)[C@@H](CCNC(=O)C(=O)Nc1ccc(-c2noc(C)n2)cc1)NC(=O)c1ccc(Nc2nc(NC3(c4ccc(Cl)cc4)CC3)nc(OCC(F)(F)F)n2)cc1 [Compound 1529] | – | – | EC50 [4]: 0.01 to 10 nM
11 | CC(C)(CNC(=O)C(=O)Nc1ccc(C(F)(F)F)c(F)c1)CNC(=O)c1ccc(Nc2nc(NC3(c4ccc(Cl)cc4)CC3)nc(OCC(F)(F)F)n2)cc1 [Compound 3250] | – | 0.01 to 10 | –
12 | CN(CCCN(C)C(=O)c1ccc(Nc2nc(NC3(c4ccc(Cl)cc4)CC3)nc(OCC(F)(F)F)n2)cc1)C(=O)C(N)=O [Compound 3411] | – | 0.01 to 10 | –
13 | COC(=O)[C@H](CCNC(=O)C(=O)Nc1ccc(OCc2ccccc2)cc1)NC(=O)c1ccc(Nc2nc(NC3(c4ccc(Cl)cc4)CC3)nc(OCC(F)(F)F)n2)cc1 [Compound 3118] | – | 0.01 to 10 | –
14 | CC(=O)Nc1ccc(NC(=O)C(=O)NCC[C@H](NC(=O)c2ccc(Nc3nc(NC4(c5ccc(Cl)cc5)CC4)nc(OCC(F)(F)F)n3)cc2)C(=O)O)cn1 [Compound 3631] | 0.01 to 10 | – | –
15 | CC(C)(CNC(=O)C(=O)Nc1cccnc1-n1cccn1)CNC(=O)c1ccc(Nc2nc(NC3(c4ccc(Cl)cc4)CC3)nc(OCC(F)(F)F)n2)cc1 [Compound 3256] | – | 0.01 to 10 | –
16 | O=C(NCC[C@H](NC(=O)c1ccc(Nc2nc(NC3(c4ccc(Cl)cc4)CC3)nc(OCC(F)(F)F)n2)cc1)C(=O)O)C(=O)Nc1cccc(C(=O)c2ccccc2)c1 [Compound 3618] | 0.01 to 10 | – | –
17 | COC(=O)[C@H](CCNC(=O)C(=O)Nc1ccc(F)c(F)c1F)NC(=O)c1ccc(Nc2nc(NC3(c4ccc(Cl)cc4)CC3)nc(OCC(F)(F)F)n2)cc1 [Compound 1508] | – | – | EC50 [4]: 0.01 to 10 nM
18 | O=C(NCC1(CNC(=O)c2ccc(Nc3nc(NC4(c5ccc(Cl)cc5)CC4)nc(OCC(F)(F)F)n3)cc2)CC1)C(=O)Nc1cccc(F)c1 [Compound 3001] | – | 0.01 to 10 | –
19 | COC(=O)[C@H](CCNC(=O)C(=O)NC1CCC(C(C)(C)C)CC1)NC(=O)c1ccc(Nc2nc(NC3(c4ccc(Cl)cc4)CC3)nc(OCC(F)(F)F)n2)cc1 (stereo partly shown) [Compound 1108] | – | – | EC50 [4]: 0.01 to 10 nM
20 | COC(=O)[C@H](CNC(=O)C(=O)Nc1cccc(-c2ncc[nH]2)c1)NC(=O)c1ccc(Nc2nc(NC3(c4ccc(Cl)cc4)CC3)nc(OCC(F)(F)F)n2)cc1 [Compound 3709] | 0.01 to 10 | – | EC50 [5]: 0.71 nM
21 | O=C(Nc1nccs1)C(=O)N[C@H](CCNC(=O)c1ccc(Nc2nc(NC3(c4ccc(Cl)cc4)CC3)nc(OCC(F)(F)F)n2)cc1)C(=O)O [Compound 3496] | – | 10 to 1000 | –
22 | Cn1cc(NC(=O)C(=O)NCC[C@H](NC(=O)c2ccc(Nc3nc(NC4(c5ccc(Cl)cc5)CC4)nc(OCC(F)(F)F)n3)cc2)C(=O)O)cn1 [Compound 1268] | – | – | EC50 [4]: 0.01 to 10 nM
23 | COC(=O)[C@H](CCNC(=O)C(=O)NC1CCCC(NC(=O)OC(C)(C)C)C1)NC(=O)c1ccc(Nc2nc(NC3(c4ccc(Cl)cc4)CC3)nc(OCC(F)(F)F)n2)cc1 (stereo partly shown) [Compound 1097] | – | – | EC50 [4]: 0.01 to 10 nM

Row | SMILES | EC50 [1] [nM] | EC50 [2] [nM] | further results
24 | CC(C)(CNC(=O)C(=O)Nc1nncs1)CNC(=O)c1ccc(Nc2nc(NC3(c4ccc(Cl)cc4)CC3)nc(OCC(F)(F)F)n2)cc1 [Compound 3382] | – | 0.01 to 10 | –
25 | COC(=O)[C@H](CCNC(=O)C(=O)NCC1CC1c1cc(F)ccc1F)NC(=O)c1ccc(Nc2nc(NC3(c4ccc(Cl)cc4)CC3)nc(OCC(F)(F)F)n2)cc1 (stereo partly shown) [Compound 1373] | – | – | EC50 [4]: 0.01 to 10 nM
26 | O=C(NC[C@H](NC(=O)c1ccc(Nc2nc(NC3(c4ccc(Cl)cc4)CC3)nc(OCC(F)(F)F)n2)cc1)C(=O)O)C(=O)NC1CCCCC1O (stereo partly shown) [Compound 1081] | – | – | EC50 [4]: 0.01 to 10 nM
27 | Cc1ccc(COc2nc(Nc3ccc(C(=O)NCC(C)(C)CNC(=O)C(=O)Nc4ccc(C)cc4)cc3)nc(NC3(c4ccc(Cl)cc4)CC3)n2)cc1 [Compound 3848] | 0.01 to 10 | – | –
28 | CC(C)(CNC(=O)C(N)=O)CNC(=O)c1c(F)cc(Nc2nc(NC3(c4ccc(Cl)cc4)CC3)nc(OCC(F)(F)F)n2)cc1F [Compound 3812] | 0.01 to 10 | – | EC50 [5]: 0.5 nM
29 | COC(=O)[C@H](CNC(=O)C(=O)Nc1cccc(C(N)=O)c1)NC(=O)c1ccc(Nc2nc(NC3(c4ccc(Cl)cc4)CC3)nc(OCC(F)(F)F)n2)cc1 [Compound 3689] | 0.01 to 10 | – | –
30 | Cc1ccc(NC(=O)C(=O)NCC(C)(C)CNC(=O)c2ccc(Nc3nc(NC4(c5ccc(Cl)cc5)CC4)nc(OCC(F)(F)F)n3)cc2)c(F)c1 [Compound 3056] | – | 0.01 to 10 | EC50 [3]: 0.007 nM
31 | CCc1cccc(NC(=O)C(=O)NCC[C@@H](NC(=O)c2ccc(Nc3nc(NC4(c5ccc(Cl)cc5)CC4)nc(OCC(F)(F)F)n3)cc2)C(=O)OC)c1 [Compound 3573] | – | 0.01 to 10 | –
32 | CC(C)(CNC(=O)C(=O)Nc1nc2c(F)cccc2s1)CNC(=O)c1ccc(Nc2nc(NC3(c4ccc(Cl)cc4)CC3)nc(OCC(F)(F)F)n2)cc1 [Compound 3824] | 0.01 to 10 | – | EC50 [5]: 0.077 nM
33 | COC(=O)[C@H](CNC(=O)C(=O)Nc1ccc(Cc2ccccc2)cc1)NC(=O)c1ccc(Nc2nc(NC3(c4ccc(Cl)cc4)CC3)nc(OCC(F)(F)F)n2)cc1 [Compound 3091] | – | 0.01 to 10 | EC50 [3]: 2.85 nM
34 | NC(=O)C(=O)NCC(CO)(CO)CNC(=O)c1ccc(Nc2nc(NC3(c4ccc(Cl)cc4)CC3)nc(OCC(F)(F)F)n2)cc1 [Compound 3838, N^1-(3-(4-((4-((1-(4-chlorophenyl)cyclopropyl)amino)-6-(2,2,2-trifluoroethoxy)-1,3,5-triazin-2-yl)amino)benzamido)-2,2-bis(hydroxymethyl)propyl)oxalamide] | 0.01 to 10 | – | EC50 [5]: 0.052 nM
35 | COC(=O)[C@H](CNC(=O)C(=O)NCC1CCOCC1)NC(=O)c1ccc(Nc2nc(NC3(c4ccc(Cl)cc4)CC3)nc(OCC(F)(F)F)n2)cc1 [Compound 1456] | – | – | EC50 (Huh-7, 48 h, HCV pseudoparticle infection of Huh7 cells, luciferase 2 days after infection, average of duplicates): 3.45 nM; EC50 [4]: 0.01 to 10 nM
36 | O=C(NCC[C@H](NC(=O)c1ccc(Nc2nc(NC3(c4ccc(Cl)cc4)CC3)nc(OCC(F)(F)F)n2)cc1)C(=O)O)C(=O)NC1C[C@H]2CC[C@@H]1C2 (stereo partly shown) [Compound 1120] | – | – | EC50 [4]: 0.01 to 10 nM
37 | COC(=O)[C@H](CNC(=O)C(=O)Nc1ccc(-c2ccc(C#N)cc2)cc1)NC(=O)c1ccc(Nc2nc(NC3(c4ccc(Cl)cc4)CC3)nc(OCC(F)(F)F)n2)cc1 [Compound 3103] | – | 0.01 to 10 | –
38 | O=C(NCCCNC(=O)c1ccc(Nc2nc(NC3(c4ccc(Cl)cc4)CC3)nc(OCC(F)(F)F)n2)cc1)C(=O)Nc1cccc(F)c1 [Compound 3349] | – | 0.01 to 10 | EC50 [3]: 0.041 nM
39 | O=C(NCC[C@H](NC(=O)c1ccc(Nc2nc(NC3(c4ccc(Cl)cc4)CC3)nc(OCC(F)(F)F)n2)cc1)C(=O)O)C(=O)Nc1cccc(S(=O)(=O)N2CCCCC2)c1 [Compound 3641] | 0.01 to 10 | – | –
40 | CCOCCOc1ccc(NC(=O)C(=O)NCCC(NC(=O)c2ccc(Nc3nc(NC4(c5ccc(Cl)cc5)CC4)nc(OCC(F)(F)F)n3)cc2)C(=O)O)cc1 (stereo not shown) [Compound 3530] | – | 0.01 to 10 | –
41 | COC(=O)[C@H](CCNC(=O)C(=O)NC1CCN(C(=O)OC(C)(C)C)CC1)NC(=O)c1ccc(Nc2nc(NC3(c4ccc(Cl)cc4)CC3)nc(OCC(F)(F)F)n2)cc1 [Compound 1101] | – | – | EC50 [4]: 0.01 to 10 nM
42 | CC(C)c1ccc(NC(=O)C(=O)NCC[C@H](NC(=O)c2ccc(Nc3nc(NC4(c5ccc(Cl)cc5)CC4)nc(OCC(F)(F)F)n3)cc2)C(=O)O)cc1 [Compound 3550] | – | 0.01 to 10 | –
43 | O=C(NC1CCCCC1)C(=O)N(CCO)CCCNC(=O)c1ccc(Nc2nc(NC3(c4ccc(Cl)cc4)CC3)nc(OCC(F)(F)F)n2)cc1 [Compound 3510] | – | 0.01 to 10 | –
44 | COC(=O)[C@H](CCNC(=O)C(=O)Nc1cc[nH]n1)NC(=O)c1ccc(Nc2nc(NC3(c4ccc(Cl)cc4)CC3)nc(OCC(F)(F)F)n2)cc1 [Compound 1223] | – | – | EC50 [4]: 0.01 to 10 nM
45 | Cc1csc(-c2cccc(NC(=O)C(=O)NCC[C@H](NC(=O)c3ccc(Nc4nc(NC5(c6ccc(Cl)cc6)CC5)nc(OCC(F)(F)F)n4)cc3)C(=O)O)c2)n1 [Compound 3649] | 0.01 to 10 | – | –
46 | Cc1cc(NC(=O)C(=O)NCC(C)(C)CNC(=O)c2ccc(Nc3nc(NC4(c5ccc(Cl)cc5)CC4)nc(OCC(F)(F)F)n3)cc2)[nH]n1 [Compound 3673] | 0.01 to 10 | – | –
